US12371428B2 (Exelixis, Inc., priority 2019, dated 2025)

Assays:
[1] = target: Human KDR (residues 790-1356) (Homo sapiens (Human), UniProt P35968); test: Human KDR kinase assay, HTRF KinEase (Example B-2); assay type: biochemical; conditions: protocol of Example B-2 (other compounds)
Procedure, shortened: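 Human KDR residues 790-1356 (0.1 ng/well) in buffer with 5 mM MgCl2, 1 mM MnCl2, 1 mM DTT, biotinylated peptide substrate, ATP at Km (4.0 μM), 3% DMSO, 10 compound concentrations; 40 min, room temperature. EDTA stop, streptavidin-XL665/Eu-TK antibody HTRF read 665/620 nm; 4-parameter IC50.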

[2] = target: Mer (phospho-Mer, MERTK-transfected 293A cells) (Homo sapiens (Human), UniProt Q12866); test: Mer autophosphorylation ELISA in transient transfected 293A cells (Example H); assay type: cell-based; conditions: cellular activity; Mer autophosphorylation ELISA in transient transfected 293A cells
Sequence of Mer (phospho-Mer, MERTK-transfected 293A cells) (Q12866 21-999): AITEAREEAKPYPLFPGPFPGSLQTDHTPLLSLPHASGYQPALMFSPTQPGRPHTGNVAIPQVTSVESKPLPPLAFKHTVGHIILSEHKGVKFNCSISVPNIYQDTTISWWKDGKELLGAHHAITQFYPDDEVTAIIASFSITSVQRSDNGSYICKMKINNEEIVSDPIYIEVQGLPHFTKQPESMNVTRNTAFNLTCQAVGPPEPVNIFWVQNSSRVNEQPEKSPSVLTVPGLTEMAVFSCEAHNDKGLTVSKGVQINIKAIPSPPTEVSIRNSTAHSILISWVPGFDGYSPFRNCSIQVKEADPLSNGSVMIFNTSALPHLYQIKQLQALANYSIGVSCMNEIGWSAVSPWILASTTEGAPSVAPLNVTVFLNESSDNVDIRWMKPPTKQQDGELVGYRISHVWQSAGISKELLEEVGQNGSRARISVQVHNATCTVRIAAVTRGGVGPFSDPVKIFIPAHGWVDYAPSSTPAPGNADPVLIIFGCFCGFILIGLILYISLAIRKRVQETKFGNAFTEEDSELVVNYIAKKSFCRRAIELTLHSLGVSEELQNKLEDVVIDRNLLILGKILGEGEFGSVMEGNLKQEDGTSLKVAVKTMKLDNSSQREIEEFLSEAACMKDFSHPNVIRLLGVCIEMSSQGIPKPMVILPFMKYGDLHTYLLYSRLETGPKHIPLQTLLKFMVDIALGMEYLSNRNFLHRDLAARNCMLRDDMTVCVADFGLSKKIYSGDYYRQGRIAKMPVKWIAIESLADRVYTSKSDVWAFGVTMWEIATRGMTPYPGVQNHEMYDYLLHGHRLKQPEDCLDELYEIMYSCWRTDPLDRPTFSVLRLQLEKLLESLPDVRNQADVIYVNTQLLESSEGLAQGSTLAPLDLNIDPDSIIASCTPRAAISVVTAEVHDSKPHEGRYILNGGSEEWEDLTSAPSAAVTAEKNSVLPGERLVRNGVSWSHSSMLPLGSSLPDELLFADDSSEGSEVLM
Procedure, shortened: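 293A cells transiently transfected with human MERTK were treated 1 h in serum-free medium with an 8-point compound dilution (0.3% DMSO final). Lysates were assayed by phospho-Mer sandwich ELISA against a phospho-Mer standard; IC50 came from a 4-parameter logistic fit, normalised to DMSO (100%) and reference-inhibitor (0%) controls.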

[3] = target: Human MER (residues 528-999) (Homo sapiens (Human), UniProt Q12866); test: Human Mer kinase assay, HTRF KinEase (Example C-2); assay type: biochemical; conditions: protocol of Example C-2 (other compounds)
Sequence of Human MER (residues 528-999) (Q12866 528-999): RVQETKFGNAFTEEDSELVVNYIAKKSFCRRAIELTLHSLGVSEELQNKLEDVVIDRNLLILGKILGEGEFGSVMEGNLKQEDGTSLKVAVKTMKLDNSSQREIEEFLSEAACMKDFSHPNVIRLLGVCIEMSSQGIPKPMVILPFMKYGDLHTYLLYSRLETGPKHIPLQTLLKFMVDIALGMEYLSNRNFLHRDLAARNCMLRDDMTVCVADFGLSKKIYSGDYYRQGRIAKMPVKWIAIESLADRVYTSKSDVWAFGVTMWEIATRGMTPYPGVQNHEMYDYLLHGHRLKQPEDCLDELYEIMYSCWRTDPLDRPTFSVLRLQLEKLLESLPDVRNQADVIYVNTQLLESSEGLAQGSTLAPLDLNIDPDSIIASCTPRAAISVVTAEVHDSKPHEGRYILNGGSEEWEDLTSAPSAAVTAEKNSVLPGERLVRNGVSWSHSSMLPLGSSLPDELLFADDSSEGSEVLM
Procedure, shortened: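 Recombinant MER 528-999 (1 ng/well) in buffer with 5 mM MgCl2 and 1 mM DTT was reacted with biotinylated peptide and ATP at Km (40 μM) for 60 min at room temperature. EDTA stop with SA-XL665 and Eu3+ TK antibody, then 665/620 nm HTRF read; IC50 from 4-parameter fit.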

[4] = target: Met (phospho-Met, HGF-stimulated PC-3 prostate cancer cells) (Homo sapiens (Human), UniProt P08581); test: Met autophosphorylation ELISA in PC-3 cells (Example F); assay type: cell-based; conditions: cellular activity; Met autophosphorylation ELISA in PC-3 cells; read-out: c-Met IC50
Sequence of Met (phospho-Met, HGF-stimulated PC-3 prostate cancer cells) (P08581 25-1390): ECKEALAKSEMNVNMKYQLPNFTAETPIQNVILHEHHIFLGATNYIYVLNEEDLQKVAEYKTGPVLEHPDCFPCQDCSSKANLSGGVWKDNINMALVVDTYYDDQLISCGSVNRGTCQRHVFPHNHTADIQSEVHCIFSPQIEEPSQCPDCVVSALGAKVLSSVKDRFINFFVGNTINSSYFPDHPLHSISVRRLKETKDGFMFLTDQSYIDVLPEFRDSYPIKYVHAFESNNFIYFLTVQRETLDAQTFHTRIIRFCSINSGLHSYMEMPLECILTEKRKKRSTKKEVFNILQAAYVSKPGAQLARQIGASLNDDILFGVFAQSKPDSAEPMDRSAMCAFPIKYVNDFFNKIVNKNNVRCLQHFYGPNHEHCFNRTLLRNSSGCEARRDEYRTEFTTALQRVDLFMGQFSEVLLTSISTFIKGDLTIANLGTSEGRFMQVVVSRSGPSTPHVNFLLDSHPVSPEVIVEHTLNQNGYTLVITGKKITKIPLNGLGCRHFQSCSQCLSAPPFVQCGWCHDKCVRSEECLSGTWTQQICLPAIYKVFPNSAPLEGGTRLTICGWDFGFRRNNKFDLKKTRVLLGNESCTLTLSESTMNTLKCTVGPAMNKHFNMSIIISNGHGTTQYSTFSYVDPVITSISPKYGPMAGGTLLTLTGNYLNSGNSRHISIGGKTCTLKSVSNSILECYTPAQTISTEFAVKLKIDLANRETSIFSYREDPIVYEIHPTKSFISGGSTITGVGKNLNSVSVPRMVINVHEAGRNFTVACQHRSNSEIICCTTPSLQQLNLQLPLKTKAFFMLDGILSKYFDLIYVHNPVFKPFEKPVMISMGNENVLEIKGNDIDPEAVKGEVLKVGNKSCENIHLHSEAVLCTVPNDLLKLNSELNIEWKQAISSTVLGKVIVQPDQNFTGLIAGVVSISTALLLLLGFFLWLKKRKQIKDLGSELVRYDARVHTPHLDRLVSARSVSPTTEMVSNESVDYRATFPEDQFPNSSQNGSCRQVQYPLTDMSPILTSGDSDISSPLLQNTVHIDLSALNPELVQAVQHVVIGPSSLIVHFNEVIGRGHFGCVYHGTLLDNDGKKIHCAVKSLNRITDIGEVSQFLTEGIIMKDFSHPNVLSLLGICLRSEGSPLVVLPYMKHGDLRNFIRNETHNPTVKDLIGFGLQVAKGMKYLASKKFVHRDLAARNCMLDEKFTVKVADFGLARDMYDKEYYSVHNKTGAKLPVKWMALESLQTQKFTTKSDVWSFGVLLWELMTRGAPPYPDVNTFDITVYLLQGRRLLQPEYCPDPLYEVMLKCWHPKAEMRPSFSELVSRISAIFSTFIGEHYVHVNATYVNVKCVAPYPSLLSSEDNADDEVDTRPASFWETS
Procedure, shortened: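 IC50 values derive from a 4-parameter logistic fit of phospho-Met (panTyr) sandwich ELISA signals in PC-3 lysates, scaled between DMSO and reference-inhibitor wells. Cells, starved 3 h in serum-free medium, had 1 h compound exposure (8 doses, 0.3% DMSO) before 10 min stimulation with 100 ng/mL HGF.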

Sequence of Human KDR (residues 790-1356) (P35968 790-1356): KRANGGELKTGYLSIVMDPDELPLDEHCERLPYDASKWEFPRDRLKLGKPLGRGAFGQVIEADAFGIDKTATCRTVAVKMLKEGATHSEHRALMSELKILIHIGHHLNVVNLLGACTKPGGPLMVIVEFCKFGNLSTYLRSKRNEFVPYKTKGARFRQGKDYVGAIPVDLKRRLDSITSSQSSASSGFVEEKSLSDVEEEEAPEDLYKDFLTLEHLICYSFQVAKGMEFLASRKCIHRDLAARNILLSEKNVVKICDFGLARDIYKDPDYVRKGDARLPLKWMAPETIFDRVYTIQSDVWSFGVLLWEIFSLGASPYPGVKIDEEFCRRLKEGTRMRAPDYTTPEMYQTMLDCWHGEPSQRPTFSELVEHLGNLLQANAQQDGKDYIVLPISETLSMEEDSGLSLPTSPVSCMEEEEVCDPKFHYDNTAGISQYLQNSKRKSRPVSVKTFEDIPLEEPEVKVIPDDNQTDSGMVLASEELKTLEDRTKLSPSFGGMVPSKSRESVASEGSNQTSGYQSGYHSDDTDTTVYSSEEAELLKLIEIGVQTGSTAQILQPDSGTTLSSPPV

Structure (SMILES)	IC50 [1]	IC50 [2]	IC50 [3]	IC50 [4]
CCc1nc(C)c(-c2ccc(F)cc2)c(O)c1C(=O)Nc1ccc(Oc2ccnc3cc(OC)cnc23)cc1 [Compound 188, 2-Ethyl-5-(4-fluorophenyl)-4-hydroxy-N-[4-[(7-methoxy-1,5-naphthyridin-4-yl)oxy]phenyl]-6-methylpyridine-3-carboxamide]	< 100 nM	< 100 nM	< 100 nM	< 100 nM
COCc1nc(C)c(-c2ccc(F)cc2)c(O)c1C(=O)Nc1ccc(Oc2ccnc3ccc(OC)nc23)c(F)c1 [Compound 189, N-[3-Fluoro-4-[(6-methoxy-1,5-naphthyridin-4-yl)oxy]phenyl]-5-(4-fluorophenyl)-4-hydroxy-2-(methoxymethyl)-6-methylpyridine-3-carboxamide]	100 to 300 nM	< 100 nM	< 100 nM	< 100 nM
COCc1nc(C)c(-c2ccc(F)cc2)c(O)c1C(=O)Nc1ccc(Oc2ccnc3cc(OC)c(OC)nc23)cc1 [Compound 190, N-[4-[(6,7-Dimethoxy-1,5-naphthyridin-4-yl)oxy]phenyl]-5-(4-fluorophenyl)-4-hydroxy-2-(methoxymethyl)-6-methylpyridine-3-carboxamide]	< 100 nM	< 100 nM	< 100 nM	< 100 nM
COCc1nc(C)c(-c2ccc(F)cc2C)c(O)c1C(=O)Nc1ccc(Oc2ccnc3cc(OC)c(OC)nc23)c(F)c1 [Compound 191, N-[4-[(6,7-Dimethoxy-1,5-naphthyridin-4-yl)oxy]-3-fluorophenyl]-5-(4-fluoro-2-methylphenyl)-4-hydroxy-2-(methoxymethyl)-6-methylpyridine-3-carboxamide]	< 100 nM	< 100 nM	< 100 nM	< 100 nM
COCc1nc(C)c(-c2ccc(F)cc2C)c(O)c1C(=O)Nc1ccc(Oc2ccnc3cc(OC)c(OC)nc23)cc1 [Compound 192, N-[4-[(6,7-Dimethoxy-1,5-naphthyridin-4-yl)oxy]phenyl]-5-(4-fluoro-2-methylphenyl)-4-hydroxy-2-(methoxymethyl)-6-methylpyridine-3-carboxamide]	< 100 nM	< 100 nM	< 100 nM	< 100 nM
COCc1nc(C)c(-c2ccc(F)cc2C)c(O)c1C(=O)Nc1ccc(Oc2ccnc3cc(OC)cnc23)c(F)c1 [Compound 193, N-[3-Fluoro-4-[(7-methoxy-1,5-naphthyridin-4-yl)oxy]phenyl]-5-(4-fluoro-2-methylphenyl)-4-hydroxy-2-(methoxymethyl)-6-methylpyridine-3-carboxamide]	100 to 300 nM	< 100 nM	< 100 nM	< 100 nM
COCc1nc(C)c(-c2ccc(F)cc2C)c(O)c1C(=O)Nc1ccc(Oc2ccnc3cc(OC)cnc23)cc1 [Compound 194, 5-(4-Fluoro-2-methylphenyl)-4-hydroxy-2-(methoxymethyl)-N-[4-[(7-methoxy-1,5-naphthyridin-4-yl)oxy]phenyl]-6-methylpyridine-3-carboxamide]	100 to 300 nM	< 100 nM	< 100 nM	< 100 nM
COCc1nc(C)c(-c2ccc(F)cc2C)c(O)c1C(=O)Nc1ccc(Oc2ccnc3ccc(OC)nc23)c(F)c1 [Compound 195, N-[3-Fluoro-4-[(6-methoxy-1,5-naphthyridin-4-yl)oxy]phenyl]-5-(4-fluoro-2-methylphenyl)-4-hydroxy-2-(methoxymethyl)-6-methylpyridine-3-carboxamide]	> 300 nM	< 100 nM	< 100 nM	< 100 nM
COc1cc2nccc(Oc3ccc(NC(=O)c4cn(C)c(C)c(-c5ccc(F)cc5C)c4=O)cc3)c2nc1OC [Compound 196, N-[4-[(6,7-Dimethoxy-1,5-naphthyridin-4-yl)oxy]phenyl]-5-(4-fluoro-2-methylphenyl)-1,6-dimethyl-4-oxopyridine-3-carboxamide]	100 to 300 nM	< 100 nM	< 100 nM	< 100 nM
CCc1nc(C)c(-c2ccc(F)cc2)c(O)c1C(=O)Nc1ccc(Oc2ccnc3cc(OC)c(OC)nc23)cc1 [Compound 197, N-[4-[(6,7-Dimethoxy-1,5-naphthyridin-4-yl)oxy]phenyl]-2-ethyl-5-(4-fluorophenyl)-4-hydroxy-6-methylpyridine-3-carboxamide]	< 100 nM	< 100 nM	< 100 nM	< 100 nM
COCCOc1nc2c(Oc3ccc(NC(=O)c4cn(C)c(C)c(-c5ccc(F)cc5)c4=O)cc3F)ccnc2cc1OC [Compound 198, N-[3-Fluoro-4-[[7-methoxy-6-(2-methoxyethoxy)-1,5-naphthyridin-4-yl]oxy]phenyl]-5-(4-fluorophenyl)-1,6-dimethyl-4-oxopyridine-3-carboxamide]	100 to 300 nM	< 100 nM	< 100 nM	< 100 nM
COCCOc1nc2c(Oc3ccc(NC(=O)c4c(COC)nc(C)c(-c5ccc(F)cc5)c4O)cc3F)ccnc2cc1OC [Compound 199, N-[3-Fluoro-4-[[7-methoxy-6-(2-methoxyethoxy)-1,5-naphthyridin-4-yl]oxy]phenyl]-5-(4-fluorophenyl)-4-hydroxy-2-(methoxymethyl)-6-methylpyridine-3-carboxamide]	< 100 nM	< 100 nM	< 100 nM	< 100 nM
COCCOc1nc2c(Oc3ccc(NC(=O)c4cn(C)c(C)c(-c5ccc(F)cc5C)c4=O)cc3F)ccnc2cc1OC [Compound 200, N-[3-Fluoro-4-[[7-methoxy-6-(2-methoxyethoxy)-1,5-naphthyridin-4-yl]oxy]phenyl]-5-(4-fluoro-2-methylphenyl)-1,6-dimethyl-4-oxopyridine-3-carboxamide]	> 300 nM	< 100 nM	< 100 nM	< 100 nM
COCCOc1nc2c(Oc3ccc(NC(=O)c4c(COC)nc(C)c(-c5ccc(F)cc5C)c4O)cc3F)ccnc2cc1OC [Compound 201, N-[3-Fluoro-4-[[7-methoxy-6-(2-methoxyethoxy)-1,5-naphthyridin-4-yl]oxy]phenyl]-5-(4-fluoro-2-methylphenyl)-4-hydroxy-2-(methoxymethyl)-6-methylpyridine-3-carboxamide]	100 to 300 nM	< 100 nM	< 100 nM	< 100 nM
CCc1nc(C)c(-c2ccc(F)cc2C)c(O)c1C(=O)Nc1ccc(Oc2ccnc3cc(OC)c(OC)nc23)c(F)c1 [Compound 202, N-[4-[(6,7-Dimethoxy-1,5-naphthyridin-4-yl)oxy]-3-fluorophenyl]-2-ethyl-5-(4-fluoro-2-methylphenyl)-4-hydroxy-6-methylpyridine-3-carboxamide]	100 to 300 nM	< 100 nM	< 100 nM	< 100 nM
CCc1nc(C)c(-c2ccc(F)cc2C)c(O)c1C(=O)Nc1ccc(Oc2ccnc3cc(OC)c(OC)nc23)cc1 [Compound 203, N-[4-[(6,7-Dimethoxy-1,5-naphthyridin-4-yl)oxy]phenyl]-2-ethyl-5-(4-fluoro-2-methylphenyl)-4-hydroxy-6-methylpyridine-3-carboxamide]	< 100 nM	< 100 nM	< 100 nM	< 100 nM
CCc1nc(C)c(-c2ccc(F)cc2C)c(O)c1C(=O)Nc1ccc(Oc2ccnc3cc(OC)cnc23)c(F)c1 [Compound 204, 2-Ethyl-N-[3-fluoro-4-[(7-methoxy-1,5-naphthyridin-4-yl)oxy]phenyl]-5-(4-fluoro-2-methylphenyl)-4-hydroxy-6-methylpyridine-3-carboxamide]	100 to 300 nM	< 100 nM	< 100 nM	< 100 nM
CCc1nc(C)c(-c2ccc(F)cc2C)c(O)c1C(=O)Nc1ccc(Oc2ccnc3cc(OC)cnc23)cc1 [Compound 205, 2-Ethyl-5-(4-fluoro-2-methylphenyl)-4-hydroxy-N-[4-[(7-methoxy-1,5-naphthyridin-4-yl)oxy]phenyl]-6-methylpyridine-3-carboxamide]	> 300 nM	< 100 nM	< 100 nM	< 100 nM
CCc1nc(C)c(-c2ccc(F)cc2C)c(O)c1C(=O)Nc1ccc(Oc2ccnc3ccc(OC)nc23)c(F)c1 [Compound 206, 2-Ethyl-N-[3-fluoro-4-[(6-methoxy-1,5-naphthyridin-4-yl)oxy]phenyl]-5-(4-fluoro-2-methylphenyl)-4-hydroxy-6-methylpyridine-3-carboxamide]	> 300 nM	< 100 nM	< 100 nM	< 100 nM
COc1cnc2c(Oc3ccc(NC(=O)c4ccc(C)n(-c5ccc(F)cc5)c4=O)cc3)ccnc2c1 [Compound 216, 1-(4-Fluorophenyl)-N-[4-[(7-methoxy-1,5-naphthyridin-4-yl)oxy]phenyl]-6-methyl-2-oxopyridine-3-carboxamide]	< 100 nM	< 100 nM	< 100 nM	< 100 nM
